# Reference: patent US12636385B2, “Selective ligands for tau aggregates” (Sentonix, Inc., priority 2018, dated 2026)
# Key:
# MAO-A [1] = biological target: T1, MAO-A (Rattus norvegicus, UniProt P21396); assay: MAO-A binding assay ([^3H]-Ro41-1049); details: tested at 1 μM, rat cerebral cortex; for inhibition at 1 µM: read-out: % inhibition of control specific binding, MAO-A binding assay
# T1 construct: tissue EuroFins Pharma Discovery Service (assay service); host or cells: rat cerebral cortex (own knowledge of the vendor's assay)
# T1 sequence (P21396 1-526): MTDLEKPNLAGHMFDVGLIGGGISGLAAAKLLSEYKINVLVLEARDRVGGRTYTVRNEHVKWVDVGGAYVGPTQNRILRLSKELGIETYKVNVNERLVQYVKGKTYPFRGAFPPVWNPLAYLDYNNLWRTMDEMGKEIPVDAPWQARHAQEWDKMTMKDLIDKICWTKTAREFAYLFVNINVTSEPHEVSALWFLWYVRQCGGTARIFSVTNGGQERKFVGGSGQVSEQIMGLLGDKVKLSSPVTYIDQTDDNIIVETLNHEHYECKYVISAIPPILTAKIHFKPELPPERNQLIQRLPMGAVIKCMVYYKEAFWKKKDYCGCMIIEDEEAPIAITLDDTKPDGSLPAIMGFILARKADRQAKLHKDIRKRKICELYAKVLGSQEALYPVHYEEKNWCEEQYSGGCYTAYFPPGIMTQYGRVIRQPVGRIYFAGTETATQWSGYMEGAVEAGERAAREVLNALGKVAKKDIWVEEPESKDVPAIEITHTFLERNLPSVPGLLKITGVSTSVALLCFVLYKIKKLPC
# Procedure: A monoamine oxidase inhibitor (MAO) binding assay for MAO-A was performed (EuroFins Pharma Discovery Service) for Example Compound 43, Example Compound 48 and the known tau ligand THK-5117. The three compounds were tested at 1 μM. Compound binding was calculated as a % inhibition of the binding of the selective MAO-A inhibitor [^3H]-Ro41-1049 for MAO-A binding.
# The MAO-A binding assay was carried our as described in Cesura, A. M., et al, Mol. Phamacol. (1990), Vol 37, pages 358-366, using the materials and conditions described in Table 3.
# The results of the MAO-A binding assay are expressed as a percent inhibition of control specific binding obtained in the presence of the test compounds: […]
# [2] = Rat brain cassette exposure study; type: in vivo, Sprague Dawley rat; details: intravenous cassette dosing; for half-life: male, Sprague Dawley, rat, brain, samples at 2 min and 30 min, read-out: calculated half-life (t1/2) in rat brain tissue; for clearance from normal rat brain tissue: 2 min and 30 min
# Procedure: The in vivo pharmacokinetic characteristics of the example compounds of the invention were compared directly with the known beta-amyloid specific ligand AZD2184 (Johnson, A. E., et al, Journal of Neurochemistry (2009), Vol. 108, pages 1177-1186). Rat brain exposure to three compounds of the invention and AZD2184 was measured by intravenous cassette dosing three test compound: Example Compound 43, Example Compound 47 and Example Compound 48; and AZD2184 (Novandi Chemistry) (concentration of 0.25 μmol/mL each) using the procedure previously described in Johnson, A. E., et al, Journal of Neurochemistry (2009), Vol. 108, pages 1177-1186. 6 male Sprague Dawley rat were used in the experiments, three rats per time point (2 min and 30 min).
# MAO-B = biological target: T2, MAO-B (Homo sapiens, UniProt P27338); assay: MAO-B recombinant enzyme assay (D-Luciferin derivative); type: biochemical; details: tested at 1 μM; for inhibition at 1 µM: read-out: % inhibition of control enzyme activity, MAO-B
# T2 construct: EuroFins Pharma Discovery Service (assay service)
# T2 sequence (P27338 1-520): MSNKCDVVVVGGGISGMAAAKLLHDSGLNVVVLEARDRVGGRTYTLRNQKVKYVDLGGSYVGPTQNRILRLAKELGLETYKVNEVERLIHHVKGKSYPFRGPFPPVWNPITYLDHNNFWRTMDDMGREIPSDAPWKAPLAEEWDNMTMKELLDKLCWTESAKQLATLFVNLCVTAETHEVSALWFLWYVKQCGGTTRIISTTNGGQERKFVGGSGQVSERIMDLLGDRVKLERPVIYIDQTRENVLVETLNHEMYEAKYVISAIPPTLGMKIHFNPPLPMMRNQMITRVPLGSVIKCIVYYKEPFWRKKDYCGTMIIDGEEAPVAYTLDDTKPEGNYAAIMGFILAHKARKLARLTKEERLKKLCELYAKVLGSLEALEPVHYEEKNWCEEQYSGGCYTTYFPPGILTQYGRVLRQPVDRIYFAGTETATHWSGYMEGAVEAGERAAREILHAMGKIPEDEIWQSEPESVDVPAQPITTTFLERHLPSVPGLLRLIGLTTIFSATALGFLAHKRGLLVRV
# Procedure: (§1) MAO enzyme and uptake assays were also performed (EuroFins Pharma Discovery Service) as described in Weyler, W., et al., J. Biol. Chem. (1985), Vol. 260, pages 13199-13207, using the materials and conditions described in Table 4; and as described in Tsugeno, U., et al., J Biochem. (1995), Vol. 118, pages 974-980, using the materials and conditions described in Table 5, for Example Compound 43, Example Compound 48 and the known tau ligand THK-5117. The three compounds were tested at 1 μM. Compound enzyme/uptake inhibition effect was calculated as a % inhibition of control enzyme activity.
# (§2) The results of the enzyme and uptake assays are expressed as a percent inhibition of control specific activity obtained in the presence of the test compounds: […]
# MAO-A [3] = biological target: T3, MAO-A (Homo sapiens, UniProt P21397); assay: MAO-A enzyme and uptake assay (kynuramine); type: biochemical; details: tested at 1 μM, human placenta; for inhibition at 1 µM: read-out: % inhibition of control enzyme activity, MAO-A
# T3 construct: EuroFins Pharma Discovery Service (assay service)
# T3 sequence (P21397 1-527): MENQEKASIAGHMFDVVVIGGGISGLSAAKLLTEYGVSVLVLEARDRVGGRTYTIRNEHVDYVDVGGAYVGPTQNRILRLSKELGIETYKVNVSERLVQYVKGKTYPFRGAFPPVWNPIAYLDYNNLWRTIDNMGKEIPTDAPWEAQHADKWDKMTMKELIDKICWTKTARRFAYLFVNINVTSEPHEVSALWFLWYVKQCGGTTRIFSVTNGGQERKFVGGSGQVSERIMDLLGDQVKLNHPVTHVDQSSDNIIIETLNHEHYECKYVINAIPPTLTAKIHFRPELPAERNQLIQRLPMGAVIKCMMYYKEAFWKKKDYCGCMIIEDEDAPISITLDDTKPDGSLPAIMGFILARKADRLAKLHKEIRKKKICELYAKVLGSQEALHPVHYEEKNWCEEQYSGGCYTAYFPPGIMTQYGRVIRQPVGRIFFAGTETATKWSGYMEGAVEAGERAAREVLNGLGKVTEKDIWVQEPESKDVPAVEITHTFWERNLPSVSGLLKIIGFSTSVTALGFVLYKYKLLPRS
# Procedure: as §1, §2
# 0N4R Tau fibrils [4] = biological target: T4, 0N4R Tau fibrils (Homo sapiens, UniProt P10636); assay: In vitro competitive binding to 0N4R tau fibrils in the presence of [^3H]-Example Compound 68 (FIG. 1)
# T4 construct: made in house
# 0N4R Tau fibrils [5] = biological target: T4, 0N4R Tau fibrils; assay: ^3H-THK5117 competition binding to tau fibrils in vitro
# Procedure: Preparation of recombinant 0N4R Tau fibrils was performed as previously described in Morozova, O. A., Biochemistry (2013), Vol., 52(40), pages 6960-6967. Competition binding experiments to 0N4R Tau fibrils were performed by incubating increasing concentrations [10^−10-10^−6 M] of the Example compounds of the invention, or the known tau specific ligand PBB3 (PBB3 was synthesized as previously described in M. Maruyama, et al, Neuron 2013, 79, 1094-1108) or MK6240 (Novandi Chemistry AB), in the presence of 3 nM of the known tau ligand [^3H]-THK5117 (Novandi Chemistry) and 0.2 mM 0N4R tau fibrils in binding buffer (50 mM Tris-HCl, pH 7.4, 0.1% BSA) for 1 h in the dark, and at 22° C. The incubation was terminated by filtration through a Whatman GF/B glass filter (Whatman International, Kent, UK) using a Brandel cell harvester. The filter was then washed rapidly four times with 3 mL of ice-cold wash buffer (5 mM Tris-HCl, 0.25 mM NaCl, 5% EtOH), and equilibrated for 1 h in scintillation vials containing 5 mL of Ultima Gold scintillation fluid before being analysed using a Liquid Scintillation Analyzer.
# The results are shown in Table 2 in the column labeled “Tau IC50”.
# Relative selectivity for tau compared to Aβ for the exemplified compounds was calculated using the results for the [^3H]-THK5117 tau and [^3H]-AZD2184 Aβ assays described above. The calculated results are shown in Table 2 in the column labeled “Selectivity for tau relative to Aβ”.
# tau plaques = assay: Autoradiography on brain sections from CBD and PSP patients; type: binding, human; details: 3 nM radiotracer, with or without 1 μM unlabeled compound; compared with antibody AT8
# Procedure: To examine binding of the example compounds of the present invention to tau plaques in vitro, autoradiography was carried out on brain sections from corticobasal degeneration (CBD) and progressive supranuclear palsy (PSP) patients incubated with [^3H]-Example Compound 72 or [^3H]-Example Compound 48 in the presence or absence of unlabeled Example Compound […] (1 μM) or unlabeled Example Compound 48 (1 μM), respectively. The experiment was performed as previously described in Johnson, A. E., et al, Journal of Neurochemistry (2009), Vol. 108, pages 1177-1186, but using post mortem cortical samples from corticobasal degeneration (CBD) and progressive supranuclear palsy (PSP) patients instead of from Alzheimer's disease patients.
# Briefly, brain sections from the cortical samples were incubated for 30 min at 22° C. in 50 mN Tris buffer (pH 7.4) together with 3 nM [^3H]-Example Compound 72 or 3 nM [^3H]-Example Compound 48 in the presence of absence of on unlabeled Example Compound 72 (1 μM) or unlabeled Example Compound 48 (1 μM), respectively. The sections were then washed (3×10 min) in Tris buffer (1° C.) followed by a rinse in deionized water (1° C.) and air-dried at 22° C. in front of a fan. Binding was then measured and analysed as described in Johnson, A. E., et al.
# The tau pathology was confirmed on adjacent brain sections by immunohisto-chemistry (IHC) using Phospho-Tau (Ser202, Thr205) Monoclonal Antibody (AT8) as previously as described in Biernat, J., et al, EMBO J. (1992) Vol. 4, pages 1593-1597. AT8 was obtained from Thermo Fisher Scientific (Phospho-PHF-Tau, Thermo Ficher Scientific, Catalog No. MN1020, Stock cone: 0.2 mg/ml, Working solution: 1/100).
# [6] = 3 nM [^3H]-THK5117, recombinant 0N4R tau fibrils, average if run more than once
# Sequence of tau plaques (P10636 561-708 limits assumed): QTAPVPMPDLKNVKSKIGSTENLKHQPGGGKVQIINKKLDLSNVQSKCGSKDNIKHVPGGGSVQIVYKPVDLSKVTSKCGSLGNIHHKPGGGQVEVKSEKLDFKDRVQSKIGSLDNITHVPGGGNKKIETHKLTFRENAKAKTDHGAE
# T4 sequence (P10636 1-383 isoform P10636-6): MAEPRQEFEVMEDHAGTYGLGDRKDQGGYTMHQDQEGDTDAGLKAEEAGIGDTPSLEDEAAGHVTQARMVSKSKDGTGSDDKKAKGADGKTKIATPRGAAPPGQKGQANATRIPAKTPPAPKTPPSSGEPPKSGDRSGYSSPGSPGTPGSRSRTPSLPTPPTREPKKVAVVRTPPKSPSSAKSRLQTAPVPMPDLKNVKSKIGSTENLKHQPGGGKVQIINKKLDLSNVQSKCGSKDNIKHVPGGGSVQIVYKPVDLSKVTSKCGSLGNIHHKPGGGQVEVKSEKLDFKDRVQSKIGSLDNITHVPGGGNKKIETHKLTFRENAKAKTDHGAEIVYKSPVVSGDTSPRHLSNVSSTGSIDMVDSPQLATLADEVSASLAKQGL
molecule,measurement,setting,value
"NC(=O)c1ccc2nc(-c3cnc(N4CCC(CCF)CC4)nc3)sc2c1 [Example Compound 43, 2-{2-[4-(2-Fluoroethyl)piperidin-1-yl]pyrimidin-5-yl}-1,3-benzothiazole-6-carboxamide]",inhibition at 1 µM,MAO-A [1],< 25%
same,half-life,[2],379 min
same,inhibition at 1 µM,MAO-B,< 25%
same,inhibition at 1 µM,MAO-A [3],< 25%
"COc1ccc2[nH]c(-c3ccc(N4CCC(CO)CC4)nc3F)cc2c1 [Example Compound 47, {1-[6-Fluoro-5-(5-methoxy-1H-indol-2-yl)pyridin-2-yl]piperidin-4-yl}methanol]",clearance from normal rat brain tissue,[2],rapidly cleared
same,half-life,[2],15.8 min
"OCC1CCN(c2ccc(-c3cc4cc(O)ccc4[nH]3)c(F)n2)CC1 [Example Compound 48, 2-{2-Fluoro-6-[4-(hydroxymethyl)piperidin-1-yl]pyridin-3-yl}-1H-indol-5-ol]",inhibition at 1 µM,MAO-A [1],< 25%
same,clearance from normal rat brain tissue,[2],rapidly cleared
same,half-life,[2],8.21 min
same,inhibition at 1 µM,MAO-B,< 25%
same,inhibition at 1 µM,MAO-A [3],< 25%
same,tau binding site shared (competition with [^3H]-Example Compound 68),0N4R Tau fibrils [4],share the same binding site
"COc1ccc2[nH]c(-c3ccc(N4CCC(C(N)=O)CC4)nc3F)cc2c1 [Example Compound 68, 1-[6-Fluoro-5-(5-methoxy-1H-indol-2-yl)pyridin-2-yl]piperidine-4-carboxamide]",tau binding site shared (competition with [^3H]-Example Compound 68),0N4R Tau fibrils [4],share the same binding site
"Nc1c(F)ccc2cnc(-n3ccc4ccncc43)cc12 [MK-6240, reference compound]",IC50,0N4R Tau fibrils [5]; [6],> 1 µM
same,Tau IC50,0N4R Tau fibrils [5]; [6],inactive
same,tau binding site shared (competition with [^3H]-Example Compound 68),0N4R Tau fibrils [4],does not share the same binding site
"CNc1ccc(/C=C/C=C/c2nc3ccc(O)cc3s2)cn1 [PBB3, reference compound]",Selectivity for tau relative to Aβ,0N4R Tau fibrils [5]; calculated from [^3H]-THK5117 tau and [^3H]-AZD2184 Aβ assays,4
same,tau binding site shared (competition with [^3H]-Example Compound 68),0N4R Tau fibrils [4],share the same binding site
"CNc1ccc(-c2ccc3cc(OCC(O)CF)ccc3n2)cc1 (stereo not shown) [THK-5117, reference compound]","% inhibition of control specific binding, MAO-A binding assay",MAO-A [1],≤ 50%
same,"% inhibition of control enzyme activity, MAO-B",MAO-B,≤ 50%
same,"% inhibition of control enzyme activity, MAO-A",MAO-A [3],≤ 50%
[^3H] labeled 2-(2-fluoro-6-{4-[hydroxymethyl]piperidin-1-yl}pyridin-3-yl)-1H-indol-5-ol [[^3H]-Example Compound 48],radiotracer binding in CBD brain tissue,tau plaques,displaceable binding in CBD brain tissue that correlates with the tau-specific antibody AT8
same,radiotracer binding in PSP brain tissue,tau plaques,displaceable binding in PSP brain tissue that correlates with the tau-specific antibody AT8
[^3H] labeled (1-{5-[5-(2-Fluoroethoxy)-1H-indol-2-yl]pyrimidin-2-yl}piperidin-4-yl)methanol [[^3H]-Example Compound 72],radiotracer binding in CBD brain tissue,tau plaques,displaceable binding in CBD brain tissue that correlate with tau-specific antibody AT8
same,radiotracer binding in PSP brain tissue,tau plaques,displaceable binding in PSP brain tissue that correlate with tau-specific antibody AT8
